The results in this text go back to patent US20240400579A1, “SPIROCYCLIC MODULATORS OF CHOLESTEROL BIOSYNTHESIS AND THEIR USE FOR PROMOTING REMYELINATION” (GENENTECH, INC., priority 2021, published 2024).

The test system of one assay is EpiSC-derived OPCs. The experiment in a line: In vitro phenotypic screening of OPCs, MBP high-content imaging. Format: cell-based, mouse. Particulars: percentage of MBP+ oligodendrocytes, 3 days, 0.5 nM to 1000 nM, read-out: mOPC EC50. The method in brief: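 Mouse EpiSC-derived OPCs seeded without growth factors and exposed 3 days at 37° C. to 8-point doses, 1000 nM to 0.5 nM final. Fixed cells stained for MBP and DAPI; high-content imaging gave percentage MBP+ oligodendrocytes, with EC50 from Hill-equation fit.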

Assay [1] has as its target human emopamil binding protein and human 7-dehydrocholesterol reductase co-expressing cell membrane (Homo sapiens (Human), UniProt Q15125). The experiment in a line: hEBP-DHCR7 radioligand filtration binding assay with [3H]-Compound 118A*. Particulars: radioligand [3H]-Compound 118A*; HEK293 membrane co-expressing hEBP and DHCR7. In short, it runs like this:
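HEK293 membranes transiently co-expressing hEBP and hDHCR7 (10 μg/well) were incubated with [3H]-Compound 118A* (added at 25 nM) and compounds (8 doses, final 0.06–5000 nM, n=2) for 3 h at 22 °C. Bound radioactivity was read after PEI-treated GF/B filtration. IC50 came from a Hill fit of % inhibition and was converted to Ki.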

For assay [2], the system named is zymostenol accumulation in EpiSC-derived OPCs (EBP). The experiment in a line: GC/MS-based sterol profiling, zymostenol accumulation. Format: cell-based, mouse. The conditions noted are these: 8 doses from 0.15 nM to 333 nM, read-out: mZymo GCMS EC50. In short, it runs like this:
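EpiSC-derived mouse OPCs plated at 100,000 cells/well in N2B27 without growth factors and treated 24 h. Sterols extracted, silylated with BSTFA and measured by GC/MS (EI, full scan), quantified against cholesterol-d7. Zymostenol normalized to levels after 24 h with 100 nM positive control reference.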

Where two headings read alike, the source gives them in different places.

Sequence of human emopamil binding protein and human 7-dehydrocholesterol reductase co-expressing cell membrane (Q15125 whole entry): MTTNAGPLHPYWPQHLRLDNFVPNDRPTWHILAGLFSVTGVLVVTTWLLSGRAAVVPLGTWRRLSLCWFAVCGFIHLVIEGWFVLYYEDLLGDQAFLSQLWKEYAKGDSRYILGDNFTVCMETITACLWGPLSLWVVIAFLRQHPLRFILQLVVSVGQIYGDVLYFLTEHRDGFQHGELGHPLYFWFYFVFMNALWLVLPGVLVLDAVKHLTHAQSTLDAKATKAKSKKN

As to `C[C@H](Cc1ccc([C@H]2CC[C@](C)(O)CC2)c(Cl)c1)CN1CCC2(C1)CS(=O)(=O)C2` (mixture of isomers) [Compound 123A, 6-((R)-3-(3-Chloro-4-((1r,4R)-4-hydroxy-4-methylcyclohexyl)phenyl)-2-methylpropyl)-2-thia-6-azaspiro[3.4]octane 2,2-dioxide, 6-((S)-3-(3-chloro-4-((1r,4S)-4-hydroxy-4-methylcyclohexyl)phenyl)-2-methylpropyl)-2-thia-6-azaspiro[3.4]octane 2,2-dioxide], the half-maximal effective concentration (EC50) (in general, the concentration that produces a half-maximal response) in the assay with EpiSC-derived OPCs came to 54 nM; in assay [2] (24 hours), 14 nM. Also, in assay [1], affinity was put at a Ki of 11.9 nM.
For `C[C@H](Cc1ccc([C@H]2CC[C@](O)(C(F)(F)F)CC2)c(Cl)c1)CN1CCC2(C1)CS(=O)(=O)C2` (stereo in doubt) [116B*, 6-((S)-3-(3-Chloro-4-((1s,4S)-4-hydroxy-4-(trifluoromethyl)cyclohexyl)phenyl)-2-methylpropyl)-2-thia-6-azaspiro[3.4]octane 2,2-dioxide, and 6-((R)-3-(3-chloro-4-((1r,4R)-4-hydroxy-4-(trifluoromethyl)cyclohexyl)phenyl)-2-methylpropyl)-2-thia-6-azaspiro[3.4]octane 2,2-dioxide], the 50% effective concentration (EC50) in the assay with EpiSC-derived OPCs was 2 nM; in assay [2] (24 hours), 0.81 nM. The affinity in assay [1], expressed as Ki, was 9.31 nM.
Consider `C[C@@H](Cc1ccc(C(F)(F)F)nc1)CN1CCC2(CC1)CS(=O)(=O)C2` (single isomer, unassigned) [Example 203*], for which the EC50 was 22 nM in the assay on EpiSC-derived OPCs (Mus musculus, 72 h) and 6.4 nM in assay [2] (Mus musculus, 24 h). Moreover, the inhibitory constant (Ki) (in general, the equilibrium dissociation constant of an inhibitor or competing ligand from its target) in assay [1] turned out to be 51.9 nM.
For `O=S1(=O)CC2(CCN(CCOc3cncc(F)c3)CC2)C1` [Example 210, 7-(2-((5-Fluoropyridin-3-yl)oxy)ethyl)-2-thia-7-azaspiro[3.5]nonane 2,2-dioxide], the EC50 was 282 nM with EpiSC-derived OPCs (Mus musculus, 72 h) and 52 nM in assay [2] (Mus musculus, 24 h). Besides, the affinity in assay [1] corresponds to a Ki of 504 nM.
In the case of `CC(C)(CN1CCC2(C1)CS(=O)(=O)C2)Oc1cccc(F)c1` [Example 127, 6-(2-(3-Fluorophenoxy)-2-methylpropyl)-2-thia-6-azaspiro[3.4]octane-2,2-dioxide], the EC50 was 15 nM in the assay on EpiSC-derived OPCs (Mus musculus, 72 h) and 13 nM in assay [2] (Mus musculus, 24 h). The compound further displayed an inhibition constant Ki in assay [1] of 21.3 nM.
As to `CCC(C)(C)c1ccc(CC(C)CN2CCC3(CCS(=O)(=O)C3)C2)cc1` (stereo not drawn) [Compound 106], the EC50 in the assay with EpiSC-derived OPCs (Mus musculus, 72 h) was 47 nM; in assay [2] (Mus musculus, 24 h), 8.5 nM. In assay [1], this compound came in with an inhibitory constant (Ki) of 8.38 nM.
`CC(C)(CN1CCC2(CC1)CS(=O)(=O)C2)Oc1ccc(C(F)(F)F)nc1` [Example 205, 7-(2-Methyl-2-((6-(trifluoromethyl)pyridin-3-yl)oxy)propyl)-2-thia-7-azaspiro[3.5]nonane 2,2-dioxide]: the concentration for a half-maximal effect (EC50) in the assay on EpiSC-derived OPCs (Mus musculus, 72 h) amounted to 24 nM; in assay [2] (Mus musculus, 24 h), 5.6 nM. Further, the inhibition constant (Ki) in assay [1] came out at 19.4 nM.
On to `CC(C)(CN1CCC2(CC1)CS(=O)(=O)C2)Oc1ccc(Cl)c(F)c1` [Compound 231, 7-(2-(4-Chloro-3-fluorophenoxy)-2-methylpropyl)-2-thia-7-azaspiro[3.5]nonane 2,2-dioxide], for which the EC50 with EpiSC-derived OPCs (Mus musculus, 72 h) is 0.9 nM; in assay [2] (Mus musculus, 24 h), 0.32 nM. In assay [1], this compound came in with an inhibition constant (Ki) of 7.31 nM.
For the compound `CC(C)(CN1CCC2(CC1)CS(=O)(=O)C2)Oc1cccc(C(F)(F)F)c1` [Compound 233, 7-(2-Methyl-2-(3-(trifluoromethyl)phenoxy)propyl)-2-thia-7-azaspiro[3.5]nonane 2,2-dioxide], the EC50 was 5.7 nM in the assay on EpiSC-derived OPCs (Mus musculus, 72 h) and 1.5 nM in assay [2] (Mus musculus, 24 h). In assay [1], this compound returned an inhibition constant Ki of 13.2 nM.
The matching figures for `C[C@H](CN1CCC2(C1)CS(=O)(=O)C2)Oc1ccc(C(F)(F)F)cc1` (single isomer, unassigned) [115A*]: 42 nM, 8.6 nM and 18.9 nM.
The matching figures for `CC(C)(Cc1ccc(C(F)(F)F)nc1)CN1CCC2(CC1)CS(=O)(=O)C2` [Example 152, 7-(2,2-Dimethyl-3-(6-(trifluoromethyl)pyridin-3-yl)propyl)-2-thia-7-azaspiro[3.5]nonane-2,2-dioxide]: 11 nM, 3.3 nM and 16 nM.
In the case of `O=S1(=O)CC2(CCN(CC3(Oc4ccc(C(F)(F)F)cc4)CCCC3)CC2)C1` [Example 202, 7-((1-(4-(Trifluoromethyl)phenoxy)cyclopentyl)methyl)-2-thia-7-azaspiro[3.5]nonane 2,2-dioxide], the EC50 amounted to 220 nM in the assay with EpiSC-derived OPCs (Mus musculus, 72 h) and 42 nM in assay [2] (Mus musculus, 24 h). In assay [1], this compound showed a Ki of 14.7 nM.
Consider `CC(Cc1ccc(F)c(F)c1)CN1CCC2(CC1)CS(=O)(=O)C2` (single isomer, unassigned) [212B*, 7-(3-(3,4-Difluorophenyl)-2-methylpropyl)-2-thia-7-azaspiro[3.5]nonane 2,2-dioxide], for which the EC50 with EpiSC-derived OPCs came to 4 nM; in assay [2] (24 hours), 2.1 nM. Also, the Ki in assay [1] turned out to be 10.1 nM.
Take `C[C@H](Cc1ccc(C2CCC(F)(F)CC2)c(Cl)c1)CN1CCC2(C1)CS(=O)(=O)C2` (single isomer, unassigned) [117B*]: the 50% effective concentration (EC50) in the assay with EpiSC-derived OPCs (Mus musculus, 72 h) was 0.46 nM; in assay [2] (Mus musculus, 24 h), 0.35 nM. In assay [1], this compound yielded an inhibitory constant (Ki) of 9.86 nM.
For `C[C@@H](Cc1ccc(C2CCC2)cc1)CN1CCC2(C1)CS(=O)(=O)C2` (single isomer, unassigned) [109C*], the EC50 in the assay on EpiSC-derived OPCs (Mus musculus, 72 h) came to 3 nM; in assay [2] (Mus musculus, 24 h), 2.1 nM. Moreover, the inhibitory constant (Ki) in assay [1] was found to be 5.14 nM.
Turning to `CC(C)(Cc1ccc(C(F)(F)F)cc1)CN1CCC2(CC1)CS(=O)(=O)C2` [Example 153, 7-(2,2-Dimethyl-3-(4-(trifluoromethyl)phenyl)propyl)-2-thia-7-azaspiro[3.5]nonane-2,2-dioxide], the EC50 was determined as 1.6 nM in the assay on EpiSC-derived OPCs (Mus musculus, 72 h) and 0.87 nM in assay [2] (Mus musculus, 24 h). This compound gave an inhibition constant Ki in assay [1] of 7.23 nM.
As for `C[C@@H](Cc1ccc(OC(F)(F)F)cc1)CN1CCC2(C1)CS(=O)(=O)C2` (single isomer, unassigned) [119A*], the 50% effective concentration (EC50) with EpiSC-derived OPCs (Mus musculus, 72 h) is 0.72 nM; in assay [2] (Mus musculus, 24 h), 0.52 nM. In addition, the affinity in assay [1], expressed as Ki, was 7.27 nM.
As to `C[C@H](CN1CCC2(CC1)CS(=O)(=O)C2)Oc1ccc(F)c(F)c1` (single isomer, unassigned) [221B*], the concentration giving a half-maximal response (EC50) in the assay with EpiSC-derived OPCs was determined as 13 nM; in assay [2] (24 hours), 4.6 nM. The same compound returned a Ki in assay [1] of 10.6 nM.
With `O=S1(=O)CC2(CCN(CCOc3ccc(Cl)c(F)c3)CC2)C1` [Example 206, 7-(2-(4-Chloro-3-fluorophenoxy)ethyl)-2-thia-7-azaspiro[3.5]nonane 2,2-dioxide], the EC50 with EpiSC-derived OPCs (Mus musculus, 72 h) came out at 3.2 nM; in assay [2] (Mus musculus, 24 h), 1.5 nM. This compound also displayed an inhibition constant (Ki) in assay [1] of 13.2 nM.
The matching figures for `O=S1(=O)CC2(CCN(CC[C@H](F)c3ccc(C(F)(F)F)nc3)CC2)C1` (single isomer, unassigned) [237A*]: 26.9 nM, 30.1 nM and 89.6 nM.
For the compound `CC(C)(Cc1cncc(C(F)(F)F)c1)CN1CCC2(C1)CS(=O)(=O)C2` [Example 149, 6-(2,2-Dimethyl-3-(5-(trifluoromethyl)pyridin-3-yl)propyl)-2-thia-6-azaspiro[3.4]octane-2,2-dioxide], the half-maximal effective concentration (EC50) was 6.3 nM in the assay on EpiSC-derived OPCs (Mus musculus, 72 h) and 1.6 nM in assay [2] (Mus musculus, 24 h). In assay [1], this compound displayed a Ki of 24.6 nM.
The matching figures for `O=S1(=O)CC2(CCN(CCCc3ccc(F)c(F)c3)CC2)C1` [Compound 225, 7-(3-(3,4-Difluorophenyl)propyl)-2-thia-7-azaspiro[3.5]nonane 2,2-dioxide]: 23.5 nM, 12.2 nM and 24.3 nM.
For the compound `O=S1(=O)CC2(CCN(CCOc3ccc(OC(F)(F)F)cc3)CC2)C1` [Compound 218, 7-(2-(4-(Trifluoromethoxy)phenoxy)ethyl)-2-thia-7-azaspiro[3.5]nonane 2,2-dioxide], the EC50 in the assay on EpiSC-derived OPCs (Mus musculus, 72 h) was found to be 2.5 nM; in assay [2] (Mus musculus, 24 h), 0.93 nM. Moreover, the Ki in assay [1] is 6.54 nM.
Turning to `C[C@H](Cc1ccc(C2CCC2)cc1)CN1CCC2(C1)CS(=O)(=O)C2` (single isomer, unassigned) [109B*], the concentration giving a half-maximal response (EC50) in the assay with EpiSC-derived OPCs (Mus musculus, 72 h) is 0.55 nM; in assay [2] (Mus musculus, 24 h), 0.4 nM. The Ki in assay [1] stood at 6.54 nM.
Regarding `C[C@H](CN1CCC2(CC1)CS(=O)(=O)C2)Oc1ccc(C(F)(F)F)cc1` (single isomer, unassigned) [227B*], the EC50 worked out at 2.4 nM in the assay with EpiSC-derived OPCs (Mus musculus, 72 h) and 2.1 nM in assay [2] (Mus musculus, 24 h). This compound also displayed a Ki in assay [1] of 9.8 nM.
The matching figures for `CC(C)(Cc1ccc(C(F)(F)F)cn1)CN1CCC2(C1)CS(=O)(=O)C2` [Example 150, 6-(2,2-Dimethyl-3-(5-(trifluoromethyl)pyridin-2-yl)propyl)-2-thia-6-azaspiro[3.4]octane-2,2-dioxide]: 25 nM, 4.9 nM and 29.9 nM.
